For data set [1], the system named is MM-1 cells. Briefly: MTT assay of cell growth and survival, MM-1 cells. In kind it is cell-based. On the procedure: (§1) All compounds are tested for purity (HPLC, NMR) and the calculated molecular weight is used to make up a 10 mM stock solution of each compound (in 100% dimethylsulfoxide or 50% dimethylsulfoxide:50% polyethylene glycol 300). Compounds are diluted into cell culture media consisting of RPMI 1640 with 10% fetal bovine serum to a final starting concentration of 10 μM. [Highest final DMSO content=0.1%.]. Tumor cells (20,000 for non-adherent cells; 5,000 for adherent cells) are plated into individual wells of a 96-well culture plate in 0.1 ml of culture media. Diluted compounds are added to individual wells containing pre-plated cells (final volume 0.2 ml) and incubated at 37° C. for 24 to 72 h. Wells receiving vehicle alone acted as a control.
(§2) MTT (viability) assay. MTT reagent (20 μl of 5 mg/ml stock solution, Sigma) is added to the cells and the plates are incubated at 37° C. for another 2 h. Cells are lysed by adding 100 μl of lysis buffer (20% SDS in 50% N,N-dimethylformamide (Sigma) adjusted to pH 4.7 by 80% acetic acid and 1 M HCl such that the final concentration of acetic acid is 2.5% and HCl is 2.5%) into each well and incubated for 6 h. The OD570 of each sample is determined by using a SPECTRA MAX M2 plate reader (Molecular Devices). The OD in control and treated wells is used as an estimate of the effect of compounds on cell growth and survival.
Cell lines. […] A375 melanoma cells were grown and maintained in the same media. Ba/F3 parental cells were grown in RPMI 1640 containing 10% heat inactivated fetal bovine serum and 2 mM glutamine supplemented with IL-3 (1 ng/ml) while Ba/F3 cells stably expressing Bcr/Abl or the T315I mutant of Bcr/Abl were grown in RPMI 1640 containing 10% heat inactivated fetal bovine serum and 2 mM glutamine in the absence of IL-3. Normal human dermal fibroblasts (NHDF) were obtained from Cambrex (Walkersville, Md.) and grown in specially formulated media (obtained through Cambrex) with 20% fetal calf serum.
IC50 determinations. The anti-tumor activity of certain compounds of the present invention against MM-1 cell lines was investigated and the IC50 values calculated (FIGS. 33A-F). In a typical experiment, MM-1 cell lines were incubated with a range of compound concentrations for 72 h to determine the concentration required to inhibit cell growth or induce apoptosis by 50% (IC50). MTT assays as described above were used to conduct this analysis.
On the technique in general: Tetrazolium assays rely on reduction of a dye to a coloured formazan, in cell work by metabolically active cells.

In data set [2] the test system is K562 cells. Kind of data set: MTT assay of cell growth and survival, K562 cells. In kind it is cell-based, human. Particulars: FIG. 21; anti-tumor activity. On the procedure:
as §1, §2
Cell lines. […]

In data set [3] the test system is Normal dermal human fibroblasts (NDF). Briefly: Growth/survival and MTT assay of normal dermal fibroblasts. In kind it is cell-based. As to the method:
Normal dermal human fibroblasts were treated for 1 h at 5 μM Degrasyn before cells were rinsed and cultured in normal growth media for 72 h. Control and treated cells were photographed after 72 h. […] An MTT assay was performed with NDF and A375 cells under these conditions (1 h treatment, 72 h incubation) to estimate the IC50 distinctions between these populations.
as §2
Cell lines. […] A375 melanoma cells were grown and maintained in the same media. […]

The target in data set [4] is T1, nucleophosmin (NPM) (Homo sapiens, UniProt P06748).
T1 construct: endogenous in cells; host or cells: MM-1 and K562 cell lysates
T1 sequence (P06748 whole entry): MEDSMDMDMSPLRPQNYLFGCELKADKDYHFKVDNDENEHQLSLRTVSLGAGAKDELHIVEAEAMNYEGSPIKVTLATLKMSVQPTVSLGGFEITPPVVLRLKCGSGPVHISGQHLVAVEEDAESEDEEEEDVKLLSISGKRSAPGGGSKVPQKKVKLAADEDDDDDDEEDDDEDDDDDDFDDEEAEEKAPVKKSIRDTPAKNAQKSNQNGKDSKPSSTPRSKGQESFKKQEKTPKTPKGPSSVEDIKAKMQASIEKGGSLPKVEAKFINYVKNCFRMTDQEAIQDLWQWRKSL
Kind of data set: Affinity recovery of Degrasyn interactive proteins with streptavidin beads. Format: binding. Particulars: MM-1 or K562 cell lysates. On the procedure: Biotinylated-Degrasyn (10 μM) was incubated with lysates from MM-1 cells (10 mg total protein) and interactive proteins were assessed by affinity recovery using Streptavidin-conjugated beads to bind biotinylated-Degrasyn. Free Degrasyn (10 μM) was incubated with biotinylated-Degrasyn in a parallel experiment to assist in identifying specific protein:Degrasyn interactions. Affinity complexes were washed and Streptavidin-Bio-Deg interaction proteins were assessed by disrupting protein complexes with SDS-sample buffer and resolving proteins by SDS-PAGE. The resolved proteins were detected by silver-staining the gel. Protein bands present in the biotinylated-Degrasyn sample that were absent in samples co-incubated with free Degrasyn were identified and cut from the gel. A 38 kDa protein band was prominent in this assessment and was subjected to in gel trypsinization and identification of HPLC resolved tryptic peptides by tandem mass spectroscopy analysis (David Hawke, Department of Molecular Pathology, M.D. Anderson Cancer Center). This analysis identified nucleophosmin (NPM) as a Degrasyn interactive protein.
To further assess the interaction between NPM and Degrasyn, biotinylated-Degrasyn/streptavidin beads were incubated with MM-1 (left) or K562 (right) cell lysates. In parallel, lysates were co-incubated with free Degrasyn to determine the specificity of the interaction with NPM. […]

The subject of data set [5] is c-myc and activated Stat3. Briefly: c-myc, pY-Stat3, Stat3, p53, p-MAPK immunoblot in A375 melanoma cells. Format: cell-based. Particulars: A375, 2 h. As to the method: A375 melanoma cells were pretreated with Degrasyn at the concentration noted for 2 h before the addition of 10 ng/ml IL-6 for 15 min. Cell lysates were prepared and equal protein aliquots were resolved by SDS-PAGE and immunoblotted for c-myc, p53 (wild-type), activated Stat3 (pY-Stat3), Stat3 and activated Erk1/2 kinase (p-MAPK).
Western Blot analysis. Cells were harvested, washed twice in cold 1×PBS and lysed in modified RIPA lysis buffer (150 mM NaCl, 1% NP-40, 0.5% Na-deoxycholate [DOC], 0.1% Na-dodecyl sulfate [SDS], 50 mM Tris-HCl (pH 7.5), 1 mM EDTA, 1 mM NaF, 2 mM Na-vanadate, with protease inhibitors (1 mM PMSF, 1 mM benzamidine, 10 μg/ml aprotinin, 10 μg/ml leupeptin) on ice for 30 min. The lysed cells were centrifuged at 13,000 rpm for 30 min and the supernatant collected. The protein concentration of the cell lysate was determined by the Bradford Protein Assay. Fifty to 60 μg of protein were resolved in a 10% SDS-PAGE, and transferred to a PVDF membrane. Western blotting was performed using specific primary antibodies Peroxidase-conjugated affiniPure anti-Mouse Anti-Rabbit secondary antibodies (Jackson Immunoresearch Laboratories, West Grove, Pa.). The proteins were visualized with ECL Plus reagents (Amersham Biosciences).
On the technique in general: Immunoblotting shows a protein as a band on a membrane.

Read-outs that look alike come from different tables or passages of the source.

Usually IC50 stands for the concentration at which inhibition is half-maximal. For `CCC[C@H](NC(=O)/C(C#N)=C/c1cccc(Br)n1)c1ccccc1` [Degrasyn], the IC50 in data set [1] (FIG. 21, anti-tumor activity, read-out: IC50 for MM-1 cells) is 1400 nM; in data set [1] (FIG. 31, 72 h, MTT, average of 4 determinations, read-out: IC50, MM-1 cells), about 1200 nM; in data set [2], 2800 nM. Besides, the “Growth or survival of normal dermal fibroblasts” value in data set [3] (5 μM for 1 h, then 72 h in normal growth media) is recorded as “did not affect the growth or survival of NDFs”. Moreover, in data set [3] (A375 vs NDF, MTT, 1 h treatment, 72 h incubation), the “Activity against melanoma tumors relative to normal dermal fibroblast” value is listed as over 5 fold. Further, the “Interaction with NPM” value in data set [4] is “interacts with NPM”. Besides, the “c-myc protein levels and Stat3 activation” value in data set [5] (then IL-6 10 ng/ml 15 min) was “reduced c-myc protein levels suppressed Stat3 activation at higher concentrations”. Also, the “Stat3, p-MAPK and p53 levels” value in data set [5] (then IL-6 15 min) is on record as “not affected”.
